The source of these data is ChEMBL document CHEMBL3792309, “Seeking potent anti-tubercular agents: Design, synthesis, anti-tubercular activity and docking study of various ((triazoles/indole)-piperazin-1-yl/1,4-diazepan-1-yl)benzo[d]isoxazole derivatives” (Bioorg Med Chem Lett, 2016).

Data set [1] deals with Mycobacterium tuberculosis. In words: Antimicrobial activity against Mycobacterium tuberculosis H37Rv by classical test tube method. It counts as functional.
Data set [2] in a line: Cytotoxicity against mouse RAW264.7 cells assessed as inhibition of cell viability at 96.13 uM after 72 hrs by CellTiter 96 non radioactive cell proliferation assay. It counts as cell-based.
A short description of data set [3]: Selectivity index, ratio of IC50 for mouse RAW264.7 cells to MIC for Mycobacterium tuberculosis H37Rv. It counts as toxicity. As to conditions: read-out: Selectivity Index.
The subject of another data set is RAW264.7. In words: Cytotoxicity against mouse RAW264.7 cells assessed as inhibition of cell viability after 72 hrs by CellTiter 96 non radioactive cell proliferation assay. It counts as cell-based. Particulars: RAW264.7, 72 h.
The subject of data set [4] is Mycobacterium tuberculosis. In words: Antimicrobial activity against p-aminosalicylic acid/isonicotinic acid hydrazide/etambutol/rifampicin sensitive Mycobacterium tuberculosis Spec. 192 by classical test tube method. It counts as functional.
Data set [5] can be described thus: Cytotoxicity against mouse RAW264.7 cells assessed as inhibition of cell viability at 116.78 uM after 72 hrs by CellTiter 96 non radioactive cell proliferation assay. It counts as cell-based.
Data set [6] is described as follows: Cytotoxicity against mouse RAW264.7 cells assessed as inhibition of cell viability at 98.8 uM after 72 hrs by CellTiter 96 non radioactive cell proliferation assay. It counts as cell-based.
Data set [7] can be described thus: Cytotoxicity against mouse RAW264.7 cells assessed as inhibition of cell viability at 113.07 uM after 72 hrs by CellTiter 96 non radioactive cell proliferation assay. It counts as cell-based.
Data set [8] has as its system Mycobacterium tuberculosis. In words: Antimicrobial activity against Mycobacterium tuberculosis H37Rv assessed as growth inhibition at 257.59 uM by classical test tube method. It counts as functional. Particulars: read-out: GI.

≈ marks a conversion by molar mass, not a printed value. Where only a bound is given, the exact number is not on record here.

The MIC is the least concentration at which growth counts as inhibited. Low readings indicate a more susceptible organism, high ones a less susceptible organism. Usually inhibition stands for the share of the control response that was lost under treatment. Usually IC50 stands for the concentration that inhibits the measured activity by half. In the case of `FC(F)(F)c1cc(-n2cc(CN3CCCN(c4noc5ccccc45)CC3)nn2)ccc1Br`, the MIC in data set [1] and in data set [4] was 24 µM (≈ 12.5 µg/mL) in each case. Also, the inhibition at 72 h, 96.13 µM in [2] was 26.5%. In addition, in data set [3], the selectivity ratio was found to be 7.54. Besides, the IC50 in the data set on RAW264.7 is 181 µM.
Take `O=C(CCCc1c[nH]c2ccccc12)N1CCCN(c2noc3ccccc23)CC1`: the MIC in [1] and in [4] was above 200 µM in each case.
On to `O=C(Cc1c[nH]c2ccccc12)N1CCN(c2noc3ccccc23)CC1`, for which the MIC in [1] and in [4] was above 200 µM each time.
For the compound `COc1cccc(-n2cc(CN3CCCN(c4noc5ccccc45)CC3)nn2)c1`, the MIC in data set [1] and in data set [4] was above 200 µM in each case.
As to `O=[N+]([O-])c1ccc(-n2cc(CN3CCN(c4noc5ccccc45)CC3)nn2)cc1`, the MIC in data set [1] and in data set [4] was above 200 µM throughout.
`COc1cccc(-n2cc(CN3CCN(c4noc5ccccc45)CC3)nn2)c1`: the minimal inhibitory concentration (MIC) in data set [1] and in data set [4] was 128 µM (≈ 50 µg/mL) each time.
For `C#CCN1CCCN(c2noc3ccccc23)CC1`, the MIC in data set [1] and in [4] was 196 µM (≈ 50 µg/mL) throughout.
As to `Brc1ccc(-n2cc(CN3CCN(c4noc5ccccc45)CC3)nn2)cc1`, the MIC in data set [1] and in data set [4] was above 200 µM throughout.
Turning to `C#CCN1CCN(c2noc3ccccc23)CC1`, the MIC in data set [1] and in data set [4] was above 200 µM each time.
Consider `FC(F)(F)c1cccc(-n2cc(CN3CCN(c4noc5ccccc45)CC3)nn2)c1`, for which the MIC in data set [1] and in data set [4] was 29.2 µM (≈ 12.5 µg/mL) throughout. For the same compound, in [3], the selectivity ratio came out at 10.4. The IC50 in the data set with RAW264.7 came out at 305 µM. Further, in data set [5], the inhibition at 72 h, 116.78 µM stood at 19.2%.
On to `O=C(Cc1c[nH]c2ccccc12)N1CCCN(c2noc3ccccc23)CC1`, for which the MIC in data set [1] and in data set [4] was 134 µM (≈ 50 µg/mL) throughout.
As for `Clc1ccc(-n2cc(CN3CCN(c4noc5cc(Cl)ccc45)CC3)nn2)cc1`, the MIC in data set [1] and in data set [4] was above 200 µM in each case.
For the compound `O=C(CCCc1c[nH]c2ccccc12)N1CCN(c2noc3cc(Cl)ccc23)CC1`, the MIC in data set [1] and in data set [4] was above 200 µM each time.
In the case of `O=C(CCCc1c[nH]c2ccccc12)N1CCN(c2noc3ccccc23)CC1`, the MIC in [1] and in [4] was above 200 µM throughout.
For `COc1ccc(-n2cc(CN3CCCN(c4noc5ccccc45)CC3)nn2)cc1`, the MIC in data set [1] and in [4] was above 200 µM throughout.
For `O=C(CCc1c[nH]c2ccccc12)N1CCCN(c2noc3ccccc23)CC1`, the MIC in data set [1] and in [4] was above 200 µM in each case.
On to `CCc1ccc(-n2cc(CN3CCCN(c4noc5ccccc45)CC3)nn2)cc1`, for which the MIC in [1] and in data set [4] was above 200 µM each time.
For `Fc1ccc(-n2cc(CN3CCN(c4noc5ccccc45)CC3)nn2)cc1`, the MIC in data set [1] and in [4] was 132 µM (≈ 50 µg/mL) each time.
As to `Clc1ccc2c(N3CCN(Cc4cn(-c5ccc(Br)cc5)nn4)CC3)noc2c1`, the MIC in [1] and in data set [4] was above 200 µM throughout.
`Brc1ccc(-n2cc(CN3CCCN(c4noc5ccccc45)CC3)nn2)cc1`: the MIC in data set [1] and in data set [4] was above 200 µM in each case.
As to `FC(F)(F)c1cc(-n2cc(CN3CCN(c4noc5ccccc45)CC3)nn2)ccc1Br`, the MIC in data set [1] and in data set [4] was 6.16 µM (≈ 3.13 µg/mL) throughout. Also, in [6], the inhibition at 72 h, 98.8 µM stood at 22.2%. The selectivity ratio in data set [3] came to 36.1. In addition, the IC50 in the data set with RAW264.7 was determined as 223 µM.
For the compound `O=C(Cc1c[nH]c2ccccc12)N1CCN(c2noc3cc(Cl)ccc23)CC1`, the MIC in [1] and in [4] was 127 µM (≈ 50.1 µg/mL) each time.
For the compound `COc1ccc(-n2cc(CN3CCN(c4noc5ccccc45)CC3)nn2)cc1`, the minimum inhibitory concentration (MIC) in [1] and in data set [4] was above 200 µM each time.
For `Clc1ccc(-n2cc(CN3CCCN(c4noc5ccccc45)CC3)nn2)cc1`, the MIC in data set [1] and in data set [4] was above 200 µM throughout.
For `O=[N+]([O-])c1ccc(-n2cc(CN3CCCN(c4noc5ccccc45)CC3)nn2)cc1`, the MIC in data set [1] and in data set [4] was above 200 µM throughout.
As to `FC(F)(F)c1cccc(-n2cc(CN3CCCN(c4noc5ccccc45)CC3)nn2)c1`, the MIC in data set [1] and in data set [4] was 28.3 µM (≈ 12.5 µg/mL) each time. The selectivity ratio in [3] was 6.29. Moreover, the inhibition at 72 h, 113.07 µM in data set [7] turned out to be 31.8%. In addition, in the data set with RAW264.7, the IC50 turned out to be 178 µM.
`O=[N+]([O-])c1ccc(-n2cc(CN3CCN(c4noc5cc(Cl)ccc45)CC3)nn2)cc1`: the MIC in data set [1] and in data set [4] was above 200 µM in each case.
Regarding `Clc1cccc(-n2cc(CN3CCCN(c4noc5ccccc45)CC3)nn2)c1`, the MIC in data set [1] and in [4] was 122 µM (≈ 50.1 µg/mL) each time.
Take `CCc1ccc(-n2cc(CN3CCN(c4noc5cc(Cl)ccc45)CC3)nn2)cc1`: the MIC in [1] and in [4] was above 200 µM each time.
As to `Clc1cccc(-n2cc(CN3CCN(c4noc5ccccc45)CC3)nn2)c1`, the MIC in [1] and in data set [4] was 63.4 µM (≈ 25 µg/mL) throughout.
Turning to `COc1ccc(-n2cc(CN3CCN(c4noc5cc(Cl)ccc45)CC3)nn2)cc1`, the MIC in [1] and in data set [4] was 118 µM (≈ 50.1 µg/mL) throughout.
`O=C(CCc1c[nH]c2ccccc12)N1CCN(c2noc3cc(Cl)ccc23)CC1`: the MIC in data set [1] and in [4] was above 200 µM each time.
Turning to `O=C(CCc1c[nH]c2ccccc12)N1CCN(c2noc3ccccc23)CC1`, the MIC in data set [1] and in data set [4] was above 200 µM throughout.
Regarding `Clc1ccc(-n2cc(CN3CCN(c4noc5ccccc45)CC3)nn2)cc1`, the MIC in [1] and in data set [4] was above 200 µM in each case.
With `CCc1ccc(-n2cc(CN3CCN(c4noc5ccccc45)CC3)nn2)cc1`, the MIC in data set [1] and in data set [4] was above 200 µM throughout. Further, the inhibition of growth at 257.59 µM in [8] was 99%.
Turning to `Fc1ccc(-n2cc(CN3CCCN(c4noc5ccccc45)CC3)nn2)cc1`, the MIC in [1] and in [4] was 127 µM (≈ 50 µg/mL) in each case.
As for `Fc1ccc(-n2cc(CN3CCN(c4noc5cc(Cl)ccc45)CC3)nn2)cc1`, the minimum inhibitory concentration (MIC) in [1] and in data set [4] was 121 µM (≈ 50.1 µg/mL) in each case.
Regarding `C#CCN1CCN(c2noc3cc(Cl)ccc23)CC1`, the MIC in [1] and in data set [4] was 182 µM (≈ 50.1 µg/mL) throughout.
With `NNC(=O)c1ccncc1` [ISONIAZID], the MIC in [1] and in data set [4] was 91.1 µM (≈ 12.5 µg/mL) each time.
